In patent US11498899B2, “Nitrone herbicides” (FMC Corporation, priority 2016, dated 2022):

Key:
[1] = test system: ragweed (common ragweed, Ambrosia elatior); experiment: Test A preemergence, visual injury rating 0-100; assay type: in vivo
[2] = test system: foxtail, giant (giant foxtail, Setaria faberii); experiment: Test A preemergence, visual injury rating 0-100; assay type: in vivo
[3] = test system: ryegrass, Italian (Italian ryegrass, Lolium multiflorum); experiment: Test A preemergence, visual injury rating 0-100; assay type: in vivo
[4] = test system: pigweed (Amaranthus retroflexus); experiment: Test A preemergence, visual injury rating 0-100; assay type: in vivo
kochia (Kochia scoparia) [5] = experiment: Test A preemergence, visual injury rating 0-100; assay type: in vivo
[6] = test system: barnyardgrass (Echinochloa crus-galli); experiment: Test B flooded paddy test, visual rating 0-100; details: Flood, 250 g ai/ha, applied to paddy water, rated after 13 to 15 days
[7] = test system: wheat (Triticum aestivum); experiment: Test A postemergence, visual injury rating 0-100; assay type: in vivo; details: 0 to 100 scale
corn (Zea mays) = experiment: Test A postemergence, visual injury rating 0-100; assay type: in vivo; details: 0 to 100 scale
[8] = test system: galium (catchweed bedstraw, Galium aparine); experiment: Test A postemergence, visual injury rating 0-100; assay type: in vivo; details: 0 to 100 scale
[9] = test system: ragweed (common ragweed, Ambrosia elatior); experiment: Test A postemergence, visual injury rating 0-100; assay type: in vivo; details: 0 to 100 scale
[10] = test system: foxtail, giant (giant foxtail, Setaria faberii); experiment: Test A postemergence, visual injury rating 0-100; assay type: in vivo; details: 0 to 100 scale
[11] = test system: ryegrass, Italian (Italian ryegrass, Lolium multiflorum); experiment: Test A postemergence, visual injury rating 0-100; assay type: in vivo; details: 0 to 100 scale
[12] = test system: pigweed (Amaranthus retroflexus); experiment: Test A postemergence, visual injury rating 0-100; assay type: in vivo; details: 0 to 100 scale
[13] = test system: barnyardgrass (Echinochloa crus-galli); experiment: Test A postemergence, visual injury rating 0-100; assay type: in vivo; details: 0 to 100 scale
[14] = test system: blackgrass (Alopecurus myosuroides); experiment: Test A postemergence, visual injury rating 0-100; assay type: in vivo; details: 0 to 100 scale
kochia (Kochia scoparia) [15] = experiment: Test A postemergence, visual injury rating 0-100; assay type: in vivo; details: 0 to 100 scale
[16] = test system: ducksalad (Heteranthera limosa); experiment: Test B flooded paddy test, visual rating 0-100; details: Flood, 250 g ai/ha, applied to paddy water, rated after 13 to 15 days
rice (Oryza sativa) = experiment: Test B flooded paddy test, visual rating 0-100 (0 no effect, 100 complete control); details: Flood, 250 g ai/ha, applied to paddy water, rated after 13 to 15 days
[17] = test system: barnyardgrass (Echinochloa crus-galli); experiment: Test A preemergence, visual injury rating 0-100 (0 no effect, 100 complete control); assay type: in vivo

Row | Structure (SMILES) | Ragweed plant response rating (0 to 100 scale) ([1]; 125 g ai/ha) | Ragweed plant response rating (0 to 100 scale) ([1]; 500 g ai/ha) | Foxtail, Giant plant response rating (0 to 100 scale) ([2]; 125 g ai/ha) | Foxtail, Giant plant response rating (0 to 100 scale) ([2]; 500 g ai/ha) | Ryegrass, Italian plant response rating (0 to 100 scale) ([3]; 125 g ai/ha) | Ryegrass, Italian plant response rating (0 to 100 scale) ([3]; 500 g ai/ha) | Pigweed plant response rating (0 to 100 scale) ([4]; 125 g ai/ha) | Pigweed plant response rating (0 to 100 scale) ([4]; 500 g ai/ha) | Kochia plant response rating (0 to 100 scale) (kochia (Kochia scoparia) [5]; 125 g ai/ha) | Kochia plant response rating (0 to 100 scale) (kochia (Kochia scoparia) [5]; 500 g ai/ha) | Barnyardgrass plant response rating (0 to 100 scale) [6] | Wheat plant response rating ([7]; 125 g ai/ha) | Wheat plant response rating ([7]; 500 g ai/ha) | Corn plant response rating (corn (Zea mays); 125 g ai/ha) | Corn plant response rating (corn (Zea mays); 500 g ai/ha) | Galium plant response rating ([8]; 125 g ai/ha) | Galium plant response rating ([8]; 500 g ai/ha) | Ragweed plant response rating ([9]; 125 g ai/ha) | Ragweed plant response rating ([9]; 500 g ai/ha) | Foxtail, Giant plant response rating ([10]; 125 g ai/ha) | other results
1 | CC1=[N+]([O-])C(C(=O)Nc2cccc(F)c2F)C(c2ccc(F)c(Cl)c2)C1 (racemic) [Compound 63] | 0 | 80 | 90 | 90 | 20 | 80 | 10 | 60 | 0 | 40 | 65 | 40 | 80 | 10 | 90 | 30 | 70 | 0 | 20 | 50 | Foxtail, Giant plant response rating ([10]; 500 g ai/ha): 90; Ryegrass, Italian plant response rating ([11]; 125 g ai/ha): 30; Ryegrass, Italian plant response rating ([11]; 500 g ai/ha): 90; Pigweed plant response rating ([12]; 125 g ai/ha): 0; Pigweed plant response rating ([12]; 500 g ai/ha): 20; Barnyardgrass plant response rating ([13]; 125 g ai/ha): 50; Barnyardgrass plant response rating ([13]; 500 g ai/ha): 90; Blackgrass plant response rating ([14]; 125 g ai/ha): 70; Blackgrass plant response rating ([14]; 500 g ai/ha): 90; Kochia plant response rating (kochia (Kochia scoparia) [15]; 125 g ai/ha): 20; Kochia plant response rating (kochia (Kochia scoparia) [15]; 500 g ai/ha): 30; Ducksalad plant response rating (0 to 100 scale) [16]: 30; Rice plant response rating (0 to 100 scale) (rice (Oryza sativa)): 0; Barnyardgrass plant response rating (0 to 100 scale) ([17]; 125 g ai/ha): 80; Barnyardgrass plant response rating (0 to 100 scale) ([17]; 500 g ai/ha): 90
2 | CC1=[N+]([O-])C(C(=O)Nc2cccc(F)c2F)C(c2ccc(F)c(C(F)(F)F)c2)C1 (racemic) [Compound 64] | 0 | 70 | 90 | 90 | 90 | 90 | 50 | 80 | 20 | 80 | 60 | 70 | 90 | 90 | 90 | 40 | 70 | 10 | 40 | 70 | Foxtail, Giant plant response rating ([10]; 500 g ai/ha): 90; Ryegrass, Italian plant response rating ([11]; 125 g ai/ha): 70; Ryegrass, Italian plant response rating ([11]; 500 g ai/ha): 80; Pigweed plant response rating ([12]; 125 g ai/ha): 0; Pigweed plant response rating ([12]; 500 g ai/ha): 50; Barnyardgrass plant response rating ([13]; 125 g ai/ha): 70; Barnyardgrass plant response rating ([13]; 500 g ai/ha): 90; Blackgrass plant response rating ([14]; 125 g ai/ha): 80; Blackgrass plant response rating ([14]; 500 g ai/ha): 80; Kochia plant response rating (kochia (Kochia scoparia) [15]; 125 g ai/ha): 0; Kochia plant response rating (kochia (Kochia scoparia) [15]; 500 g ai/ha): 30; Ducksalad plant response rating (0 to 100 scale) [16]: 70; Rice plant response rating (0 to 100 scale) (rice (Oryza sativa)): 0; Barnyardgrass plant response rating (0 to 100 scale) ([17]; 125 g ai/ha): 90; Barnyardgrass plant response rating (0 to 100 scale) ([17]; 500 g ai/ha): 90
3 | CC1=[N+]([O-])C(C(=O)Nc2cccc(F)c2F)C(c2cccc(Br)n2)C1 (racemic) [Compound 65] | 0 | 0 | 0 | 90 | 0 | 100 | 0 | 0 | 0 | 0 | 15 | 0 | 10 | 0 | 0 | 0 | 30 | 0 | 0 | 0 | Foxtail, Giant plant response rating ([10]; 500 g ai/ha): 20; Ryegrass, Italian plant response rating ([11]; 125 g ai/ha): 0; Ryegrass, Italian plant response rating ([11]; 500 g ai/ha): 0; Pigweed plant response rating ([12]; 125 g ai/ha): 0; Pigweed plant response rating ([12]; 500 g ai/ha): 0; Barnyardgrass plant response rating ([13]; 125 g ai/ha): 0; Barnyardgrass plant response rating ([13]; 500 g ai/ha): 0; Blackgrass plant response rating ([14]; 125 g ai/ha): 0; Blackgrass plant response rating ([14]; 500 g ai/ha): 0; Kochia plant response rating (kochia (Kochia scoparia) [15]; 125 g ai/ha): 0; Kochia plant response rating (kochia (Kochia scoparia) [15]; 500 g ai/ha): 0; Ducksalad plant response rating (0 to 100 scale) [16]: 60; Rice plant response rating (0 to 100 scale) (rice (Oryza sativa)): 10; Barnyardgrass plant response rating (0 to 100 scale) ([17]; 125 g ai/ha): 0; Barnyardgrass plant response rating (0 to 100 scale) ([17]; 500 g ai/ha): 90
4 | CC1=[N+]([O-])C(C(=O)Nc2cccc(F)c2F)C(c2ccc(Br)cn2)C1 (racemic) [Compound 66] | 0 | 0 | 10 | 70 | 0 | 0 | 0 | 0 | 0 | 0 | 35 | 0 | 0 | 0 | 0 | 0 | 0 | 0 | 0 | 0 | Foxtail, Giant plant response rating ([10]; 500 g ai/ha): 0; Ryegrass, Italian plant response rating ([11]; 125 g ai/ha): 0; Ryegrass, Italian plant response rating ([11]; 500 g ai/ha): 0; Pigweed plant response rating ([12]; 125 g ai/ha): 0; Pigweed plant response rating ([12]; 500 g ai/ha): 0; Barnyardgrass plant response rating ([13]; 125 g ai/ha): 0; Barnyardgrass plant response rating ([13]; 500 g ai/ha): 0; Blackgrass plant response rating ([14]; 125 g ai/ha): 0; Blackgrass plant response rating ([14]; 500 g ai/ha): 0; Kochia plant response rating (kochia (Kochia scoparia) [15]; 125 g ai/ha): 0; Kochia plant response rating (kochia (Kochia scoparia) [15]; 500 g ai/ha): 0; Ducksalad plant response rating (0 to 100 scale) [16]: 75; Rice plant response rating (0 to 100 scale) (rice (Oryza sativa)): 15; Barnyardgrass plant response rating (0 to 100 scale) ([17]; 125 g ai/ha): 0; Barnyardgrass plant response rating (0 to 100 scale) ([17]; 500 g ai/ha): 20
5 | COc1cccc(C2CC(C)=[N+]([O-])C2C(=O)Nc2cccc(F)c2F)n1 (racemic) [Compound 67] | 0 | 0 | 0 | 60 | 0 | 0 | 0 | 0 | 0 | 0 | 15 | 0 | 0 | 0 | 0 | 0 | 0 | 0 | 0 | 0 | Foxtail, Giant plant response rating ([10]; 500 g ai/ha): 10; Ryegrass, Italian plant response rating ([11]; 125 g ai/ha): 0; Ryegrass, Italian plant response rating ([11]; 500 g ai/ha): 0; Pigweed plant response rating ([12]; 125 g ai/ha): 0; Pigweed plant response rating ([12]; 500 g ai/ha): 0; Barnyardgrass plant response rating ([13]; 125 g ai/ha): 0; Barnyardgrass plant response rating ([13]; 500 g ai/ha): 0; Blackgrass plant response rating ([14]; 125 g ai/ha): 0; Blackgrass plant response rating ([14]; 500 g ai/ha): 0; Kochia plant response rating (kochia (Kochia scoparia) [15]; 125 g ai/ha): 0; Kochia plant response rating (kochia (Kochia scoparia) [15]; 500 g ai/ha): 0; Ducksalad plant response rating (0 to 100 scale) [16]: 65; Rice plant response rating (0 to 100 scale) (rice (Oryza sativa)): 15; Barnyardgrass plant response rating (0 to 100 scale) ([17]; 125 g ai/ha): 0; Barnyardgrass plant response rating (0 to 100 scale) ([17]; 500 g ai/ha): 70
